In ChEMBL document CHEMBL3991601, “The target landscape of clinical kinase drugs” (Science, 2017):
Calls of active or inactive are those of the source.

Experiments:
[1] = biological target: T1, Cysteine--tRNA ligase, cytoplasmic (Homo sapiens, UniProt P49589)
T1 sequence (P49589 whole entry): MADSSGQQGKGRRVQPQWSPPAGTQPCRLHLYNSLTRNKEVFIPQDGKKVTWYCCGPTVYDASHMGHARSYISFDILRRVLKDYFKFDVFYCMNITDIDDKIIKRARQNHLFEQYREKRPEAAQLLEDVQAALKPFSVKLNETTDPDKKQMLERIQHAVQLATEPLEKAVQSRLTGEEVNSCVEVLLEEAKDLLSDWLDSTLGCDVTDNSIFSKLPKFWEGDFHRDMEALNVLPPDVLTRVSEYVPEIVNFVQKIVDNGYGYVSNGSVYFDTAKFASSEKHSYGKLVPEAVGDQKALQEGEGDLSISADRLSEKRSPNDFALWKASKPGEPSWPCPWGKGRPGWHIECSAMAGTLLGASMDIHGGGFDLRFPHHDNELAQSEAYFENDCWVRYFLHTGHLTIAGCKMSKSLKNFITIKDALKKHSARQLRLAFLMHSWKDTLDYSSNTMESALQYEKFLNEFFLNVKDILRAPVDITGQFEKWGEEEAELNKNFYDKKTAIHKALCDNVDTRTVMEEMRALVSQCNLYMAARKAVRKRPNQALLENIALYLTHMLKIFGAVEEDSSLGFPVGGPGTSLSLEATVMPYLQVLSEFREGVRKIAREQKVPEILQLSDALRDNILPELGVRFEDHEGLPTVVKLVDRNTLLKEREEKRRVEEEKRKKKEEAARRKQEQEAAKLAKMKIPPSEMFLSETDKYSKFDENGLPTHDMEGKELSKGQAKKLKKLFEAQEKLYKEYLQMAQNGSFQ

[2] = biological target: Dual specificity protein kinase CLK1 (Homo sapiens, UniProt P49759)
[3] = biological target: T2, MAP kinase-activated protein kinase 5 (Homo sapiens, UniProt Q8IW41)
T2 sequence (Q8IW41 whole entry): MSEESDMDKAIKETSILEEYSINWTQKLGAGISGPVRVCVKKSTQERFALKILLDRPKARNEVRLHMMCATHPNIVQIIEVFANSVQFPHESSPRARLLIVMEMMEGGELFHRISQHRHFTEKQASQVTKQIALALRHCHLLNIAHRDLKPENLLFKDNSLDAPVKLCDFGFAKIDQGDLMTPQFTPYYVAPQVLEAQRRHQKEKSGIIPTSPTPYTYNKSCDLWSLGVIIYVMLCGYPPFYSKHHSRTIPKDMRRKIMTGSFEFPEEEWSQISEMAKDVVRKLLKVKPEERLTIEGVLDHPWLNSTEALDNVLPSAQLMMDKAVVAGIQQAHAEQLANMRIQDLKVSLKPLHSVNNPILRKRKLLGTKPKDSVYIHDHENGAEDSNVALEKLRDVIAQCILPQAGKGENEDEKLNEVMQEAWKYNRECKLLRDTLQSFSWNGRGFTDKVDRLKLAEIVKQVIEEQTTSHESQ

[4] = biological target: cAMP-dependent protein kinase catalytic subunit gamma (Homo sapiens, UniProt P22612)
[5] = biological target: T3, Ras-related protein Rab-27A (Homo sapiens, UniProt P51159)
T3 sequence (P51159 whole entry): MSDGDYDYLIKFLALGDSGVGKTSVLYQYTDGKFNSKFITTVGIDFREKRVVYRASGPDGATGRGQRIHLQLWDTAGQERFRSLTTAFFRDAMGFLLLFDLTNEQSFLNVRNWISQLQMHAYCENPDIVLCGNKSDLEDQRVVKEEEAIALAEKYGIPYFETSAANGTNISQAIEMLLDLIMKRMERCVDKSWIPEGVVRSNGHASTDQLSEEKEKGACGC

[6] = biological target: Structural maintenance of chromosomes protein 2 (Homo sapiens, UniProt O95347)
[7] = biological target: T4, Tyrosine-protein kinase Tec (Homo sapiens, UniProt P42680)
T4 sequence (P42680 whole entry): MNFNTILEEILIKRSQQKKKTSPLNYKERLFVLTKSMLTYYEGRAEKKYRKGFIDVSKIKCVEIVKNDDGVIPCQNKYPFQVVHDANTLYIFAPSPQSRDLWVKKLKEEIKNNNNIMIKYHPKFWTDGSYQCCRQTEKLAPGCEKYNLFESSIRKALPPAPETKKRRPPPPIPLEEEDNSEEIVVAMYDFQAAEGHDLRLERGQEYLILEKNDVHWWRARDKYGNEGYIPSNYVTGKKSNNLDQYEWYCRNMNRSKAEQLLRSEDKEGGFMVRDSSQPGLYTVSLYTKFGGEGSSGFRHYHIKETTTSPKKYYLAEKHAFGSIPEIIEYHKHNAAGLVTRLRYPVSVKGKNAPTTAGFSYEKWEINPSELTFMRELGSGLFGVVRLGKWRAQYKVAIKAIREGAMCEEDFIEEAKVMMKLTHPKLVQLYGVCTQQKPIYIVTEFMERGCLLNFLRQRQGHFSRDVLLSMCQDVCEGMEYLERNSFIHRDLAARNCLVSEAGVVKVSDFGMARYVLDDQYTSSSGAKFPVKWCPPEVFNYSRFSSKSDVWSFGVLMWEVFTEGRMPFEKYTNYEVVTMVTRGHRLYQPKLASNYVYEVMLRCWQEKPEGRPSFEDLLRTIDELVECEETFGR
Further: in the data inactive means no Kd found up to 30 µM.

Sequence of cAMP-dependent protein kinase catalytic subunit gamma (P22612 whole entry): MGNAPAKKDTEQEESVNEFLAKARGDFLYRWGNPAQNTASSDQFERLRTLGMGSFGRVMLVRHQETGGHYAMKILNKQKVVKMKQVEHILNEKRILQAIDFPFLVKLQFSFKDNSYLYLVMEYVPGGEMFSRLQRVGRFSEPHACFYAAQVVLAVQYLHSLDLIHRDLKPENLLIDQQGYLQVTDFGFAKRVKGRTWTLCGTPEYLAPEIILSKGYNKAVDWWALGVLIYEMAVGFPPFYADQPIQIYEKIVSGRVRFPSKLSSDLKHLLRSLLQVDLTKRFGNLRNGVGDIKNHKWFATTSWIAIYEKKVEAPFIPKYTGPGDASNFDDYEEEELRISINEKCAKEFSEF
Sequence of Dual specificity protein kinase CLK1 (P49759 whole entry): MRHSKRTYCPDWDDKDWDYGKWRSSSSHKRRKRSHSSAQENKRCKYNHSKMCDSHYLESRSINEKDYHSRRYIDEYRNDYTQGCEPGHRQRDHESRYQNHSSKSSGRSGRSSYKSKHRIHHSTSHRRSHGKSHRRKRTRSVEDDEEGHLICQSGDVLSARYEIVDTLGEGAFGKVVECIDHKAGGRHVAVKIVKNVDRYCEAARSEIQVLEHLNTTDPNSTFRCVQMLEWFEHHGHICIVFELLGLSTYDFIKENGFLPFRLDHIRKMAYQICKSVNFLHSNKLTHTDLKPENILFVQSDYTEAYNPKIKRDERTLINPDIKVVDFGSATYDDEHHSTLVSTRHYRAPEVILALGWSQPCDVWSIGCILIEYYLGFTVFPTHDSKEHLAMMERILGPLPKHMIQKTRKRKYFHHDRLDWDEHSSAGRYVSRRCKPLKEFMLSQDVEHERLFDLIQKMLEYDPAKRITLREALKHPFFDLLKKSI
Sequence of Structural maintenance of chromosomes protein 2 (O95347 whole entry): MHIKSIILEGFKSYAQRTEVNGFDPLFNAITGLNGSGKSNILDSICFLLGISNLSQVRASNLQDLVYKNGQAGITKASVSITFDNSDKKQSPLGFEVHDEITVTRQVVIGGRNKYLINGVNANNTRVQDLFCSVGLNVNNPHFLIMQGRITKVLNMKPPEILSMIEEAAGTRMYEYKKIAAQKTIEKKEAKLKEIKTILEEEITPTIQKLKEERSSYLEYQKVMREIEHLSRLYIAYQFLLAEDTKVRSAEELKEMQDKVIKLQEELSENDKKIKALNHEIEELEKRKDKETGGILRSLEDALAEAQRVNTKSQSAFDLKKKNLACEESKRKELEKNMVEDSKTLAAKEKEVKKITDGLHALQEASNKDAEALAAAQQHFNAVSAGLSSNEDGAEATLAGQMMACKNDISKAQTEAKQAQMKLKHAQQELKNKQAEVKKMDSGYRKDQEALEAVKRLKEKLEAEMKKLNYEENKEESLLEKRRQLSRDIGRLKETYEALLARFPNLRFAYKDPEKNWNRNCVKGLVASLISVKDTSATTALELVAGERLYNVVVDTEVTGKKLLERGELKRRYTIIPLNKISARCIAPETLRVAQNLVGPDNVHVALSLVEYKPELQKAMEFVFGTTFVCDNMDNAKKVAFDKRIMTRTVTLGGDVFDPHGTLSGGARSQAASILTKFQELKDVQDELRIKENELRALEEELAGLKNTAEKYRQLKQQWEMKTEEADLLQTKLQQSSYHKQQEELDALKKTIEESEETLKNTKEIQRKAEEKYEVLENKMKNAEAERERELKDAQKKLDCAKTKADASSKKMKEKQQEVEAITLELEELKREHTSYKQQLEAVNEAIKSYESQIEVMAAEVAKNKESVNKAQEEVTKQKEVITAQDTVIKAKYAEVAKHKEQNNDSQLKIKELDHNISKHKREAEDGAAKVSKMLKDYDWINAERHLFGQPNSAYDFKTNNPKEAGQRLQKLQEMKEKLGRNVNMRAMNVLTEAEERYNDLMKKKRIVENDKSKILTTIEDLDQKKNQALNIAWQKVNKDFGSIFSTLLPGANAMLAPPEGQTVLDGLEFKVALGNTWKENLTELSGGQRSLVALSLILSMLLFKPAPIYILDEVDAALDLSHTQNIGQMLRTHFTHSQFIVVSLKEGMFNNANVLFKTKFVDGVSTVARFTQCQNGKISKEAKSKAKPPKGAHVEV

Kd [1] | Kd [2] | Kd [3] | Kd [4] | Kd [5] | Kd [6] | Kd [7] | Compound
> 30 µM (inactive) | > 30 µM (inactive) | > 30 µM (inactive) | > 30 µM (inactive) | > 30 µM (inactive) | > 30 µM (inactive) | 0.045 µM (active) | CC(C)c1cc(CNc2nc(Nc3cc(C4CC4)[nH]n3)cc(N3CCN(C)CC3)n2)on1 [XL-228]
> 30 µM (inactive) | > 30 µM (inactive) | > 30 µM (inactive) | > 30 µM (inactive) | > 30 µM (inactive) | > 30 µM (inactive) | > 30 µM (inactive) | CN1C/C=C/CCOc2cccc(c2)-c2ccnc(n2)Nc2cccc(c2)C1 [ZOTIRACICLIB]
